Measured values reported in ChEMBL document CHEMBL4304808, “PROTAC Degradation of IRAK4 for the Treatment of Neurodegenerative and Cardiovascular Diseases” (ACS Med Chem Lett, 2019).

Tests used:
[1] = biological target: T1, Protein cereblon/Interleukin-1 receptor-associated kinase 4 (Homo sapiens, UniProt Q9NWZ3+Q96SW2); test: Protac activity at E3 ubiquitin ligase/IRAK4 in human MCF7 cells assessed as IRAK4 degradation after 24 hrs by Western blot analysis relative to control; type: cell-based
Target sequence in this assay (Q96SW2 whole entry, looked up, one chain of several): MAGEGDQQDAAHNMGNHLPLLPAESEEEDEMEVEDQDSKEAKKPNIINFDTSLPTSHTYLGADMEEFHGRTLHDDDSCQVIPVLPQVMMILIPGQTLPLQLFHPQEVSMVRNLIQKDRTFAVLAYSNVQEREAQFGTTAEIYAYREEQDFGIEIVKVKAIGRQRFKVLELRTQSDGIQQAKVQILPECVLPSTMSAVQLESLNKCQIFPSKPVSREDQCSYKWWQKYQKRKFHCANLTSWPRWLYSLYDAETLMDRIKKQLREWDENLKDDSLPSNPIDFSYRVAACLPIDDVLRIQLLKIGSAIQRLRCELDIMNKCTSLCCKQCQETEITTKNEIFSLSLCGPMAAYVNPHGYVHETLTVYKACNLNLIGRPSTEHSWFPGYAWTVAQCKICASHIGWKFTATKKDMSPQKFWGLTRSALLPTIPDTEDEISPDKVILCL

[2] = biological target: T1, Protein cereblon/Interleukin-1 receptor-associated kinase 4; test: Protac activity at E3 ubiquitin ligase/IRAK4 in human MCF7 cells assessed as IRAK4 degradation after 24 hrs by Western blot analysis; type: cell-based
Target sequence in this assay (Q96SW2 whole entry, one chain of several): as the sequence (Q96SW2 whole entry, looked up, one chain of several) above

[3] = biological target: T2, Interleukin-1 receptor-associated kinase 4 (Homo sapiens, UniProt Q9NWZ3); test: Inhibition of N-terminal GST-tagged human IRAK4 (2 to end residues) expressed in baculovirus infected Sf9 cells using Ser/Thr 7 peptide as substrate in presence of ATP after 1 hr by Z'-LYTE assay
T2 sequence (Q9NWZ3 whole entry): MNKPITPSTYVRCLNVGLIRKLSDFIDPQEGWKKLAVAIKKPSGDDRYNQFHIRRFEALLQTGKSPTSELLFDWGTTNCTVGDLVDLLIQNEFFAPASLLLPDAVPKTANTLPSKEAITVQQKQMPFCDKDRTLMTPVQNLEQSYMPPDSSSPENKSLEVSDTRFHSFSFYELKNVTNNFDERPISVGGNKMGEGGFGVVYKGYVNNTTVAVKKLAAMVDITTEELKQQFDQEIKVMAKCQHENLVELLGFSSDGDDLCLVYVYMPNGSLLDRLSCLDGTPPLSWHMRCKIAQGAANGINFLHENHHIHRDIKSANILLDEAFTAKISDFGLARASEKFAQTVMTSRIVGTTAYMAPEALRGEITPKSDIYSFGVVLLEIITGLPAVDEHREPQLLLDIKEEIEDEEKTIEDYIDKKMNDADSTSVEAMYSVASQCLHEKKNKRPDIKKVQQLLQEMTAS

Row | Emax [1] [%] | DC50 [2] [nM] | IC50 [3] [nM] | SMILES
1 | > 70 | < 30 | < 30 | O=C1CCC(N2C(=O)c3ccc(N4CCC(CN5CCN(Cc6ccc7c(c6)nc(NC(=O)c6cccc(C(F)(F)F)c6)n7[C@H]6CC[C@@H](CO)CC6)CC5)CC4)cc3C2=O)C(=O)N1 (stereo not given in full)
2 | > 50 | < 30 | < 30 | COc1cc2nn(C3CCN(CCOCCOc4ccc5c(c4)C(=O)N(C4CCC(=O)NC4=O)C5=O)CC3)cc2cc1NC(=O)c1cccc(C(F)(F)F)n1 (stereo not given)
3 | > 70 | 30 to 100 | < 30 | O=C1CCC(N2C(=O)c3ccc(OC4CCC(CN5CCN(Cc6ccc7c(c6)nc(NC(=O)c6cccc(C(F)(F)F)c6)n7[C@H]6CC[C@@H](CO)CC6)CC5)CC4)cc3C2=O)C(=O)N1 (stereo not given in full)
4 | > 50 | < 30 | < 30 | COc1cc2nn(C3CCN(CCOCCOc4ccc5c(c4)CN(C4CCC(=O)NC4=O)C5=O)CC3)cc2cc1NC(=O)c1cccc(C(F)(F)F)n1 (stereo not given)
5 | > 70 | < 30 | < 30 | O=C1CCC(N2C(=O)c3ccc(OCCOCCOCCN4CCN(Cc5ccc6c(c5)nc(NC(=O)c5cccc(C(F)(F)F)c5)n6[C@H]5CC[C@@H](CO)CC5)CC4)cc3C2=O)C(=O)N1 (stereo not given in full)
